Experimental data from PMC3674150 (Cancer research, 2013).
Where two headings read alike, the source gives them in different places.

How the values were obtained:
[1] = test system: K562 cells; experiment: Apoptosis assay; format: cell-based, human
[2] = test system: K562 cells
[3] = clinical, cited from earlier work
[4] = test system: BCR-ABL signaling (pCrkL) in K562 cells
[5] = test system: BCR-ABL signaling (pCrkL, pSTAT5) in K562 cells; details: 500 and 5000 nM for 2 h, FACS
[6] = test system: primary CML cells; experiment: Apoptosis assay in primary CML mononuclear cells after washout; details: primary CML cells (12/209), 4 h at 100 nM
[7] = test system: K562 cells; experiment: Detection of inhibitors by LC/MS/MS in cellular and media fractions
[8] = test system: BCR-ABL signaling (pSTAT5) in primary CML cells; experiment: Phosflow FACS analysis of pSTAT5 in primary CML cells; format: cell-based, human; details: 100 nM for 4 h
[9] = 2 h exposure at 10 nM, annexin V at 72 h
[10] = 2 h exposure at 10 nM, standard washout, annexin V at 72 h
[11] = 2 h exposure at 100 nM, annexin V at 72 h
[12] = 2 h exposure at 100 nM, standard washout, annexin V at 72 h
[13] = 100 nM for 2 h, after standard washout

CNC(=O)c1cc(Oc2ccc(NC(=O)Nc3cc(C(C)(C)C)nn3-c3ccc4ncccc4c3)c(F)c2)ccn1 [DCC-2036, rebastinib]
concentration inducing substantial apoptosis over untreated ([1]; continuous exposure for 72 h): 25 to 50 nM | TKI in the media fraction [2]: either not detected or below the lower limit of quantitation

Cc1nc(Nc2ncc(C(=O)Nc3c(C)cccc3Cl)s2)cc(N2CCN(CCO)CC2)n1 [dasatinib]
plasma half-life ([3]; ref 9, 21): 3 to 5 h | plasma half-life ([3]; ref 10, 11): 3 to 5 h | serum half-life ([3]; ref 13): 3 to 5 h | apoptosis after expanded washout [1, 9]: background levels of apoptosis | apoptosis after standard washout compared to continuous exposure [1, 10]: abolished onset of apoptosis | apoptosis after expanded washout [1, 11]: moderate reduction in the extent of apoptosis | apoptosis after standard washout compared to continuous exposure [1, 12]: only slightly diminished the extent of apoptosis | apoptosis (annexin V-positive cells) ([1]; continuous exposure at 10 nM or 100 nM): substantial onset of apoptosis | TKI in the media fraction [2]: either not detected or below the lower limit of quantitation

Cc1cn(-c2cc(NC(=O)c3ccc(C)c(Nc4nccc(-c5cccnc5)n4)c3)cc(C(F)(F)F)c2)cn1 [nilotinib]
pCrkL signal inhibition at end of exposure ([4]; 2 h exposure at 500 nM): near complete pCrkL signal blockade | pCrkL signal inhibition at end of exposure ([4]; 2 h exposure at 5000 nM): complete interruption | pCrkL after expanded washout [5]: pCrkL levels approximating pretreatment levels | apoptosis after expanded washout ([1]; 2 h exposure at 5000 nM, annexin V at 72 h): reduced to background levels | apoptosis after standard washout ([1]; 2 h exposure at 5000 nM, standard washout, annexin V at 72 h): substantial apoptosis | media level of TKI ([2]; human, 2 h, 5000 nM): 25.5 nM

Cc1ccc(C(=O)Nc2ccc(CN3CCN(C)CC3)c(C(F)(F)F)c2)cc1C#Cc1cnc2cccnn12 [ponatinib]
pCrkL level after treatment compared to untreated/pretreatment ([4]; 2 h treatment at 10 nM, immunoblot): 25-50% | pCrkL level after treatment ([4]; 2 h treatment at 100 nM, immunoblot): essentially undetectable levels | apoptosis after expanded washout [6]: not completely back to baseline | apoptosis after expanded washout [1, 9]: reduced to background levels | apoptosis after standard washout compared to continuous exposure [1, 10]: minimal | apoptosis after expanded washout [1, 11]: unaffected | apoptosis after standard washout compared to continuous exposure [1, 12]: no reduction in apoptosis | intracellular inhibitor level ([7]; 10 nM for 2 h, after expanded washout): 0.14 ng/10^6 cells | intracellular inhibitor level ([7]; 10 nM for 2 h, after standard washout): 0.24 ng/10^6 cells | intracellular inhibitor level ([7]; 100 nM for 2 h, after expanded washout): 0.87 ng/10^6 cells | intracellular inhibitor level [7, 13]: 2.11 ng/10^6 cells | media level of TKI [7, 13]: 6.68 nM | pSTAT5 at 24 h post expanded washout [8]: approaching but not quite reaching those of untreated cells | pSTAT5 at 24 h post standard washout [8]: remained inhibited
